Key:
platelets = experiment: Platelet Aggregation Inhibition Activity (gel-filtered platelets, thrombin or ADP agonist, light transmission); format: cell-based; details: 37° C.; for IC50: unit inferred
Description: The percentage of platelet aggregation is calculated as an increase in light transmission of drug treated platelet concentrate vs control treated platelet concentrate. Blood is obtained from drug free, normal donors and placed into tubes containing 0.13 M sodium citrate (two sources are routinely used: platelet concentrate obtained from Biological Specialty Corp., Lansdale, Pa. or whole blood obtained from donors). Platelet rich plasma (PRP) is collected by centrifugation of the concentrate or whole blood at 130 ×g for 15 min at 25° C. The PRP (5 mL) is gel filtered through Sepharose 2B (bed volume 50 mL), and the platelet count is adjusted to 2×10^7 platelets per sample. The following constituents are added to a siliconized cuvette: 250 μL of the concentrated platelet flitrate, 100 μL of Tyrode's buffer (0.14 M NaCl, 0.0027 M KCl, 0.012 M NaHCO3, 0.76 mM Na2HPO4, 0.0055 M glucose and 2 mg/mL BSA pH 7.4), 50 μL of 2 mM calcium and test drug […]. Aggregation is monitored in a dual channel Chrono-log Aggregometer for three minutes following the addition of agonist (thrombin 50 μL of 1 unit/mL, or ADP 50 μL of 100 μM). The final assay volume is 500 μL. The reaction takes place at 37° C. The peak aggregation response is calculated as the increase in light transmission units over a three minute period. The difference of the increase in light transmission between control and drug treated platelets is then expressed as a percent of the nondrug treated controls.

[1] = target: T1, fibrinogen receptor of blood platelets (activated platelets) (Homo sapiens, UniProt P05106+P08514); experiment: Fibrinogen Binding (125I-fibrinogen binding to thrombin-activated platelets); details: 125I-fibrinogen 0.15 μM; for IC50: unit inferred
T1 construct: from tissue
Description: The compounds of the invention as identified above are evaluated for platelet aggregation inhibition activity as indicated by the percentage of non-aggregated platelets which are available for binding in accordance with the following procedure.
^125 I-Fibrinogen binding to activated platelets is a modification of the procedure described by Bennett et al., 1988. Briefly, 40 mL of PRP are centrifuged at 120 ×g to remove contaminating red cells. Aspirin (50 μM) is added and the PRP is incubated at 37° C. for 20 minutes. The pH of the PRP is adjusted to 6.5 with 3.8% sodium citrate and 0.9 μM of PGE1 is added. Platelets are concentrated by a 300 ×g centrifugation (10 min) and the pellet is resuspended in 4 mL. of Tyrode's buffer. The platelet suspension (4 mL) is gel-filtered through a Sepharose-2B column (50 mL bed volume). The platelet count is adjusted to 1×10^8 platelets per 200 mL. The binding reaction is performed in polystyrene tubes (final volume 500 mL). Reagents are added in the following order: 80 mL of Tyrode's buffer, 50 mL of CaCl2 (final concentration (f.c.) […]) and 50 mL of thrombin (f.c. 0.1 unit/mL). The platelet suspension is then added and the mixture is allowed to incubate at room temperature for 2 minutes. Hirudin (50 mL, f.c. 0.5 unit/mL) is immediately added to prevent the catalytic activity of thrombin. Various concentrations of the compound to be tested […] with the competing radioligand ^125 I-fibrinogen (f.c. of 0.15 μM) are added. The mixture is incubated for 10 minutes at room temperature. To terminate the binding reaction the platelets are sedimented (10,000 ×g for 3 minutes) through silicone oil (3:1 hi-phenol 550/methyl silicone 200, W. F. Nye, Inc., New Bedford, Mass.), in an Eppendorf centrifuge.
The tips of the centrifuge tubes containing the pelleted platelets are cut off and counted for ^125 I-fibrinogen associated with the stimulated platelets. The amount of platelet radioactivity measured in the presence of nonlabeled fibrinogen (4 mg/mL) is considered the nonspecific binding.
Data are expressed as a percent at concentrations of 30 μM of specifically bound ^125 I-fibrinogen to the platelets in Table 5 below. Positive percentages of fibrinogen binding indicates higher activity for inhibiting platelet aggregation since only non-aggregated or free platelets are available for fibrinogen binding. Alternatively, a concentration is provided in lieu of a percentage to indicate the IC50 of concentration of compound which provides 50% fibrinogen binding.

T1 sequence (P08514 32-887 limits assumed): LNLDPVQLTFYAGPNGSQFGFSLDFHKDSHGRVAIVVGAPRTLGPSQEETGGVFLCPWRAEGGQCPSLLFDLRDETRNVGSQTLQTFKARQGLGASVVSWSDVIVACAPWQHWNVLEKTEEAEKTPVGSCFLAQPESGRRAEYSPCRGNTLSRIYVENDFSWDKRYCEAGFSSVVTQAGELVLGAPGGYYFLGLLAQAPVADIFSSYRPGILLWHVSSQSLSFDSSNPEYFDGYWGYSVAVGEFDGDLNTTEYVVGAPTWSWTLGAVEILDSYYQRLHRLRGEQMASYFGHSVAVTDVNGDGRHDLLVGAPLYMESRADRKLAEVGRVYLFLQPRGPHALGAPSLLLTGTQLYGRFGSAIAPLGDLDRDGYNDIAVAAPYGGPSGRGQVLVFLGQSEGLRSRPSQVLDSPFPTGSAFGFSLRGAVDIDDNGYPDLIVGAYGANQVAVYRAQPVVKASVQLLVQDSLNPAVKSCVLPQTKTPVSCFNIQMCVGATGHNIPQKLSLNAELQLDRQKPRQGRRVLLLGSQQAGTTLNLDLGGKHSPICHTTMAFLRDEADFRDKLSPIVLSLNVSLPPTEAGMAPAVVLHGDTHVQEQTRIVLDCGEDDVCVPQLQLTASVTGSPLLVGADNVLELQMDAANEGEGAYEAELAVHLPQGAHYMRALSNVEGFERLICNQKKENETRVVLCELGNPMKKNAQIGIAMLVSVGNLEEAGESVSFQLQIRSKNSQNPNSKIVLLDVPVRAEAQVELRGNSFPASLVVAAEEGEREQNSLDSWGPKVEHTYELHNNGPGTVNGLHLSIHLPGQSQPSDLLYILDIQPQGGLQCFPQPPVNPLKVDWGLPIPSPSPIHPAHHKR
T1 sequence (P08514 891-1039 partner limits assumed): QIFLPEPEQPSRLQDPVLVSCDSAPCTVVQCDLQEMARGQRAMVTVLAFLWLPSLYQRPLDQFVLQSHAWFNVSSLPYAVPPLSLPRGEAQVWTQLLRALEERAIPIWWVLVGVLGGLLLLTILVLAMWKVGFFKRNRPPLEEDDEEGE
T1 sequence (P05106 27-788): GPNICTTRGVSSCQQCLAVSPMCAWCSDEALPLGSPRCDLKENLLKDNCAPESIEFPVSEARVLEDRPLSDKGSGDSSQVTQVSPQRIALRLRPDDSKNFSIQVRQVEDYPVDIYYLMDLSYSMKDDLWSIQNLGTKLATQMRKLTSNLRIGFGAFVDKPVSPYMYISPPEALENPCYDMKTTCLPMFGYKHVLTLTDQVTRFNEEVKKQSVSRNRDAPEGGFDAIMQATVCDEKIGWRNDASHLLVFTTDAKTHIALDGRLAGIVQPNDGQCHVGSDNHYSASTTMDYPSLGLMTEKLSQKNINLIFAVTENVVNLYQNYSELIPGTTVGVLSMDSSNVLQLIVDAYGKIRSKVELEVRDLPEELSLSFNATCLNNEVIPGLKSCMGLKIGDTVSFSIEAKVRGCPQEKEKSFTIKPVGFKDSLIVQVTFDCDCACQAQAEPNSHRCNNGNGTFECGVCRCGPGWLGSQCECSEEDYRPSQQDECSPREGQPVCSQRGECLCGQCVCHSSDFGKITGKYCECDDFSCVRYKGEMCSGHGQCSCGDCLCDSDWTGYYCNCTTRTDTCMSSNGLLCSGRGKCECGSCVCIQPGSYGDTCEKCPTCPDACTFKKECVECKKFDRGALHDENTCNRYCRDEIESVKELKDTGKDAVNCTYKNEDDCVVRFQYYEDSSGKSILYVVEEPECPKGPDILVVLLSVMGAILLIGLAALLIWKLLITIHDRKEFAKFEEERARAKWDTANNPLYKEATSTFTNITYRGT

Row | Compound | IC50 (platelets) [µM] | inhibition at 30 µM [1] [%] | IC50 [1] [µM] | inhibition at 20 µM (platelets) [%]
1 | O=C(c1ccccc1)N1CCc2nc(Nc3nc(-c4ccc(F)cc4)cs3)nc(-c3ccccc3)c2C1 [Cmpd 9] | – | – | – | 27
2 | Cc1ccc(-c2csc(Nc3nc4c(c(-c5ccccc5)n3)CNCC4)n2)cc1 [Cmpd 15, 2-[4-[4-Methylphenyl]thiazol-2-yl]amino-5,6,7,8-tetrahydro-4-phenylpyrimidino[4,5-d]pyridine] | – | 28 | – | 85
3 | COc1ccc(-c2csc(Nc3nc4c(c(-c5ccccc5)n3)CNCC4)n2)cc1 [Cmpd 18] | – | – | – | 25
4 | Cc1ccc(-c2csc(Nc3ncc4c(n3)CCNC4)n2)cc1 [Cmpd 23] | – | – | – | 25
5 | c1ccc(-c2csc(Nc3ncc4c(n3)CCNC4)n2)cc1 [Cmpd 24] | – | – | – | 11
6 | Cc1ccc(-c2csc(Nc3nc4c(c(-c5ccccc5)n3)CN(C(=O)CCN3CCN(C)CC3)CC4)n2)cc1 [Cmpd 26] | – | 39 | – | 81
7 | CCCNCCC(=O)N1CCc2nc(Nc3nc(-c4cccc(Cl)c4)cs3)nc(-c3ccccc3)c2C1 [Cmpd 28] | – | – | – | 56

Second part, led by results:

Row | IC50 (platelets) [µM] | inhibition at 30 µM [1] [%] | IC50 [1] [µM] | Compound | inhibition at 20 µM (platelets) [%]
8 | 7.93 | 69 | 7.7 | c1ccc(-c2csc(Nc3nc4c(c(-c5ccccc5)n3)CNCC4)n2)cc1 [Cmpd 13, 2-[4-Phenylthiazol-2-yl]amino-5,6,7,8-tetrahydro-4-phenylpyrimidino[4,5-d]pyridine] | 100
9 | 5.8 | 95 | 20.9 | Fc1ccc(-c2csc(Nc3nc4c(c(-c5ccccc5)n3)CNCC4)n2)cc1 [Cmpd 20] | 87
10 | 6.1 | 87 | 20.9 | Clc1ccc(-c2csc(Nc3nc4c(c(-c5ccccc5)n3)CNCC4)n2)cc1 [Cmpd 21] | 84
